According to patent publication US9862684B2, “Modulation of K2P channels” (The Regents of the University of California, priority 2013, dated 2018):

Experiments:
[1] = target: T1, K2P2.1 (TREK-1) (Mus musculus, UniProt P97438); assay: Two-electrode voltage clamp of Xenopus oocytes expressing K2P2.1 (TREK-1); format: cell-based, Murine; settings: Xenopus oocytes; for effect on K2P2.1 (TREK-1) function / activity (in words): two-electrode voltage clamp
T1 construct: expressed in transfected cells; host or cells: Xenopus oocytes (cRNA injection, pGEMHE/pMO)
T1 sequence (P97438 1-411 isoform P97438-2): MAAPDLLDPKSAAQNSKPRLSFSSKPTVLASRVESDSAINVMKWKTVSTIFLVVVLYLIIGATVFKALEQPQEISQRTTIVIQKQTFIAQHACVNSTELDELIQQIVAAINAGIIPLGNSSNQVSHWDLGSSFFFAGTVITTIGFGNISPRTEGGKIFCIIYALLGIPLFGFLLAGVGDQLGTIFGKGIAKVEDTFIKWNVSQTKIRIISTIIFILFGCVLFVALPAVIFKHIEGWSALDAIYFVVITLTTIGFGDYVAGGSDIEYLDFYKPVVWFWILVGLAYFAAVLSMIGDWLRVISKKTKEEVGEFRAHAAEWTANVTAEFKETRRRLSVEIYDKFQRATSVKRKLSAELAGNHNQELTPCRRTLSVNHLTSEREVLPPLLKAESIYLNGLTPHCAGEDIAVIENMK
Procedure: (§1) Two-electrode voltage clamp recordings were performed from defolliculated stage V-VI Xenopus oocytes 24-48 hours after injection with 0.015-6.0 ng cRNA, using microelectrodes (0.3-3.0 MΩ) filled with 3M KCl. […] Recording solutions (mM): 2K (96 NaCl, 2 KCl, 1.8 CaCl2, 2 MgCl2), 90K (90 KCl, 8 NaCl, 1.8 CaCl2, 2 MgCl2), were buffered 5 mM HEPES pH 7.4. For K2P recordings, currents we elicited by a 1 second long ramp from −150 to +50 mV from a holding potential of −80 mV (2K), or −100 to +50 mV from a holding potential of 0 mV (90K). For KCNQ2 recordings, currents were elicited by a step protocol from −120 to 60 mV, in 20 mV increments, from a holding potential of −80 mV. […] Currents were elicited by a 1 second long ramp from −150 to +50 mV from a holding potential of −80 mV.

[2] = target: T2, TREK-1 (Mus musculus, UniProt P97438); assay: Modulation of TREK-1 by select compounds (agonist activity), Table 3; format: cell-based, Murine; settings: for EC50: agonist activity on TREK-1
T2 construct: expressed in transfected cells
T2 sequence (P97438 1-411 isoform P97438-2): T1 sequence (P97438 1-411 isoform P97438-2)
Procedure: as §1

Row | SMILES | comments (comparison with ML67-33 / ML67-142, dose-response remark) [2] | EC50 [2] [µM] | % activity at 50 μM [2] [%] | further results
1 | O=C(O)CCn1c2ccccc2c2ccccc21 [ML67-2, 3-carbazol-9-ylpropanoic acid] | – | – | – | Emax (fold) at 500 μM ([1]; at 500 μM): 1.3 ± 0.1 at 500 μM fold; effect on K2P2.1 (TREK-1) function / activity (in words) [1]: reduced activity
2 | O=C(O)CCn1c2ccccc2c2cc(I)ccc21 [ML67-14, 3-(3-iodocarbazol-9-yl)propanoic acid] | No plateau | > 500 | – | –
3 | O=C(O)CCCn1c2ccc(Cl)cc2c2cc(Cl)ccc21 [ML67-15, 4-(3,6-dichlorocarbazol-9-yl) butanoic acid] | – | – | – | Emax (fold) at 200 μM ([1]; at 200 μM): 4.7 ± 0.9 at 200 μM fold; effect on K2P2.1 (TREK-1) function / activity (in words) [1]: did not significantly improve potency
4 | Clc1ccc2c(c1)c1cc(Cl)ccc1n2CCc1nnn[nH]1 [ML67-18, 3,6-dichloro-9-[2-(1H-tetrazol-5-yl)ethyl]carbazole] | – | 125 | – | Emax (fold) ([1]; fold over basal current, no concentration stated): ~18 fold
5 | O=C(O)CCN1c2ccc(Cl)cc2Sc2cc(Cl)ccc21 [ML67-26, 3-(3,7-dichloro-phenothiazin-10-yl)propanoic acid] | No plateau | ~200 | – | –
6 | Clc1ccc2c(c1)c1cc(Cl)ccc1n2[C@H]1C[C@H](c2nnn[nH]2)C1 [ML67-30, 3,6-dichloro-9-[3-(1H-tetrazol-5-yl)cyclobutyl] carbazole (trans)] | – | < 125 | – | –
7 | Brc1ccc2c3ccc(Br)cc3n(CCc3nnn[nH]3)c2c1 [ML67-34, 2,7-dibromo-9-[2-(1H-tetrazol-5-yl)ethyl]carbazole] | Not better than ML67-33 | > 38.5 | 13.4 | –
8 | c1ccc2c(c1)Oc1ccccc1N2CCc1nnn[nH]1 [ML67-35, 10-[2-(1H-tetrazol-5-yl)ethyl] phenoxazine] | Not better than ML67-33 | > 38.5 | 17.8 | –
9 | c1ccc2c(c1)Sc1ccccc1N2CCc1nnn[nH]1 [ML67-36, 10-[2-(1H-tetrazol-5-yl)ethyl] phenothiazine] | – | > 38.5 | – | –
10 | Brc1ccc2c(c1)Sc1cc(Br)ccc1N2CCc1nnn[nH]1 [ML67-37, 3,7-dibromo-10-[2-(1H-tetrazol-5-yl)ethyl] phenothiazine] | Not better than ML67-33 | > 38.5 | 96 | –
11 | Brc1ccc2c(c1)Oc1cc(Br)ccc1N2CCc1nnn[nH]1 [ML67-38, 3,7-dibromo-10-[2-(1H-tetrazol-5-yl)ethyl] phenoxazine] | Not better than ML67-33 | > 38.5 | 68.8 | –
12 | CC1(C)c2ccccc2N(CCc2nnn[nH]2)c2ccccc21 [ML67-39, 9,9-dimethyl-10-[2-(1H-tetrazol-5-yl)ethyl]acridine] | Not better than ML67-33 | > 38.5 | 29.2 | –
13 | CC1(C)c2cc(Br)ccc2N(CCc2nnn[nH]2)c2ccc(Br)cc21 [ML67-137, 2,7-dibromo-9,9-dimethyl-10-[2-(1H-tetrazol-5-yl)ethyl]acridine] | – | – | 100 | Emax (fold) at 100 μM ([1]; at 100 μM (FIG. 4, 7 legends), marked ** in Table 1, footnote not given): 9.2 ± 1.4** fold; effect on K2P2.1 (TREK-1) function / activity (in words) [1]: did not significantly improve activity; % activity at 10 μM ([2]; 10 μM): 80%
14 | Clc1ccc2c(c1)C1(CCCC1)c1cc(Cl)ccc1N2CCc1nnn[nH]1 [ML67-138, 2,7-dichloro-10-[2-(1H-tetrazol-5-yl)ethyl]spiro [acridine-9,1′-cyclopentane]] | – | 18.3 | – | –
15 | Clc1ccc2c(c1)C1(CCOCC1)c1cc(Cl)ccc1N2CCc1nnn[nH]1 [ML67-139, 2,7-dichloro-10-[2-(1H-yl)ethyl]spiro [acridine-9,4′-oxane]] | Not better than ML67-33 | > 38.5 | 60.7 | –
16 | O=C(O)CCN1c2ccc(Cl)cc2C2(CCCCC2)c2cccc(Cl)c21 [ML67-140, 3-(2,5-dichlorospiro [acridine-9,1′-cyclohexane]-10-yl)propanoic acid] | Not better than ML67-33 | > 38.5 | 57.7 | –
17 | O=C(O)CCN1c2ccc(Cl)cc2C2(CCCCC2)c2cc(Cl)ccc21 [ML67-141, 3-(2,7-dichlorospiro [acridine-9,1′-cyclohexane]-10-yl)propanoic acid] | Better than ML67-33; not better than (ML67-142) | 8.6 to 38.5 | – | –
18 | Clc1ccc2c(c1)C1(CCCCC1)c1cc(Cl)ccc1N2CCc1nnn[nH]1 [ML67-142, 2,7-dichloro-10-[2-(1H-tetrazol-5-yl)ethyl]spiro [acridine-9,1′-cyclohexane]] | – | 8.6 | – | –
19 | Clc1ccc2c(c1)C1(CCCCC1)c1cccc(Cl)c1N2CCc1nnn[nH]1 [ML67-143, 2,5-dichloro-10-[2-(1H-tetrazol-5-yl)ethyl]spiro [acridine-9,1′-cyclohexane]] | Better than ML67-33; Not better than (ML67-142) | 8.6 to 38.5 | – | –
20 | c1ccc2c(c1)N(CCc1nnn[nH]1)c1ccccc1C21CCCCC1 [ML67-144, 10-[2-(1H-tetrazol-5-yl)ethyl]spiro [acridine-9,1′-cyclohexane]] | Not better than ML67-33 | > 38.5 | 32.3 | –
21 | Brc1ccc2c(c1)C1(CCCCC1)c1cc(Br)ccc1N2CCc1nnn[nH]1 [ML67-145, 2,7-dibromo-10-[2-(1H-1,2,3,4-tetrazol-5-yl)ethyl]-10H-spiro[acridine-9,1′-cyclohexane]] | Better than ML67-33; Not better than (ML67-142) | 8.6 to 38.5 | – | –
22 | OCc1ccc2c(c1)C1(CCCCC1)c1cc(Br)ccc1N2CCc1nnn[nH]1 [ML67-146, 2-bromo-10-[2-(1H-1,2,3,4-tetrazol-5-yl)ethyl]-10H-spiro[acridine-9,1′-cyclohexane]-7-ylmethanol] | Not better than ML67-33 | > 38.5 | 25.9 | –
23 | O=C(O)CCN1c2ccc(Br)cc2C2(CCCCC2)c2cc(Br)ccc21 [ML67-147, 3-{2,7-dibromo-10H-spiro[acridine-9,1′-cyclohexane]-10-yl}propanoic acid] | Not better than ML67-33 | > 38.5 | 84.1 | –
24 | CS(=O)(=O)NC(=O)CCN1c2ccc(Br)cc2C2(CCCCC2)c2cc(Br)ccc21 [ML67-148, 3-{2,7-dibromo-10H-spiro[acridine-9,1′-cyclohexane]-10-yl}-N-methanesulfonyl-propanamide] | Better than ML67-33; Not better than (ML67-142) | 8.6 to 38.5 | – | –
25 | C#Cc1ccc(S(=O)(=O)NC(=O)CCN2c3ccc(Br)cc3C3(CCCCC3)c3cc(Br)ccc32)cc1 [ML67-150, 3-{2,7-dibromo-10H-spiro[acridine-9,1′-cyclohexane]-10-yl}-N-(4-ethynyl-benzenesulfonyl) propanamide] | Not better than ML67-33 | > 38.5 | – | –
26 | O=C(O)CCC(CN1c2ccc(Br)cc2C2(CCCCC2)c2cc(Br)ccc21)C(=O)O (stereo not shown) [ML67-152, 2-{2,7-dibromo-10H-spiro[acridine-9,1′-cyclohexane]-10-ylmethyl} pentanedioic acid] | No better than ML67-33 | > 38.5 | 45 | –
